Assay results from PMC4536076, “Chemical Library Screening and Structure-Function Relationship Studies Identify Bisacodyl as a Potent and Selective Cytotoxic Agent Towards Quiescent Human Glioblastoma Tumor Stem-Like Cells” (PLoS ONE, 2015).
Structures can show the parent of a compound that is named as a salt. Where two headings read alike, the source gives them in different places.

Assays:
proliferating TG1 GSCs [1] = assay: ATP-Glo dose-response, proliferating TG1 GSCs; format: cell-based, human; details: 24 h; for EC50: Homo sapiens
Protocol: (§1) The EC50 value was determined for each compound by fitting the data points according to the following equation: y=Smax+Smin*(x*1/EC50)^n/1+(x*1/EC50)^n where y represents the expected response, x is the chemical compound concentration, S max and S min are the maximum and minimum responses recorded, respectively and n is the Hill coefficient. Curve fitting was performed using Microsoft Excel Solver component.
(§2) Proliferating or quiescent TG1 cells were seeded in 50 μL of their respective media (30 000 and 40 000 viable cells/well, respectively) into 96-well opaque bottom plates (Greiner, Courtaboeuf, France). Compound treatment was performed by adding 50 μL of compound solutions (in the presence of 2% DMSO in culture medium). […] All compounds were tested in triplicate in each experiment. Independent experiments were performed at least twice for almost all of the compounds.

quiescent TG1 GSCs [2] = assay: ATP-Glo dose-response, quiescent TG1 GSCs; format: cell-based, human; details: for Quiescent TG1 GSCs EC50 / EC50: 24 h; for EC50: Homo sapiens; for fold increase in EC50 (activity decrease) compared to DDPM (compound 2): quiescent TG1 GSCs
Protocol: as §1, §2

proliferating OB1 GSCs = assay: ATP-Glo dose-response, proliferating OB1 GSCs; format: cell-based; details: Homo sapiens; ATP Glo readout, 24 h treatment; read-out: P OB1 GSCs EC50
Protocol: as §1
(§3) Similar dose response curves were performed using GSCs isolated from GBM of two other patients (TG16 and OB1 GSCs) grown under proliferating and quiescent conditions.

quiescent OB1 GSCs = assay: ATP-Glo dose-response, quiescent OB1 GSCs; format: cell-based, human; details: Homo sapiens; ATP Glo readout, 24 h treatment; read-out: Q OB1 GSCs EC50
Protocol: as §1, §3

[3] = tested on: fetal neural stem cells (f-NSC); assay: ATP-Glo dose-response, fetal neural stem cells; format: cell-based; details: Homo sapiens, Neural stem cell; ATP Glo readout, 24 h treatment
proliferating TG16 GSCs = assay: ATP-Glo dose-response, proliferating TG16 GSCs; format: cell-based, human; details: Homo sapiens; ATP Glo readout, 24 h treatment; read-out: P TG16 GSCs EC50
Protocol: as §1, §3

[4] = tested on: primary astrocytes (HA cells); assay: ATP-Glo dose-response, primary astrocytes; format: cell-based, human; details: Homo sapiens, Astrocyte; ATP Glo readout, 24 h treatment
quiescent TG16 GSCs = assay: ATP-Glo dose-response, quiescent TG16 GSCs; format: cell-based, human; details: Homo sapiens; ATP Glo readout, 24 h treatment; read-out: Q TG16 GSCs EC50
Protocol: as §1, §3

proliferating TG1 GSCs [5] = details: primary screen, 50 μM, 24 h
Protocol: (§4) Proliferating or quiescent TG1 GSCs were seeded (30 000 and 40 000 viable cells/well, respectively) into 96-well opaque bottom plates (Greiner) with the Biomek FX robot (Beckman Coulter). Each compound from the Prestwick Library was then added (final concentration: 50 μM; 1% DMSO). Each molecule was tested once. Negative control wells (12/96 per assay plate) contained cells treated with 1% DMSO (final concentration) and positive control wells (4/96 per assay plate) contained cells treated with the fungal toxin ophiobolin A (Sigma Aldrich) at 50 μM with 1% DMSO. […] Luminescence in each well was measured with the Victor3 plate reader (PerkinElmer).
(§5) Relative ATP levels in each well were determined by calculating the percentage of luminescent signal in the well with respect to the average signal measured in negative control wells.
(§6) Primary screen hits were further tested in duplicate, at two concentrations (50 and 5 μM) on proliferating and quiescent TG1 GSCs. Cell plating and treatment with compounds were as for the primary screen. Hit selection/confirmation criteria for quiescent cells were as described above.

HEK 293 cells = assay: ATP-Glo dose-response, HEK 293 cells; format: cell-based, human; details: Homo sapiens, HEK293; ATP Glo readout, 24 h treatment
Protocol: as §1, with “component. […]” for “component.”

quiescent TG1 GSCs [6] = details: primary screen, 50 μM, 24 h
Protocol: as §4, §5, §6

[7] = SAR study, ATP-Glo cell survival assay, triplicate
[8] = ATP Glo readout, 24 h treatment, n = 3, read-out: P TG1 GSCs EC50
[9] = ATP Glo readout, 24 h treatment, n = 3, read-out: Q TG1 GSCs EC50
[10] = SAR study, ATP-Glo cell survival assay, triplicate, read-out: Proliferating TG1 GSCs EC50
[11] = SAR study, ATP-Glo cell survival assay, triplicate, read-out: Quiescent TG1 GSCs EC50

SMILES	Proliferating TG1 GSCs EC50 (proliferating TG1 GSCs [1]; [7])	EC50 (proliferating OB1 GSCs) [µM]	EC50 (proliferating TG1 GSCs [1]; [8]) [µM]	EC50 (quiescent OB1 GSCs) [µM]	EC50 [3] [µM]	EC50 (proliferating TG16 GSCs) [µM]	EC50 (quiescent TG1 GSCs [2]; [9]) [µM]	EC50 [4] [µM]	EC50 (quiescent TG16 GSCs) [µM]	EC50 (HEK 293 cells) [µM]	Activity on quiescent TG1 GSCs (hit compounds reducing ATP levels) (quiescent TG1 GSCs [6])	EC50 (quiescent TG1 GSCs [2]; [11]) [µM]	further results
Oc1ccc(Cc2ccccn2)cc1 [Compound 8, 2-(4-Hydroxybenzyl)pyridine]	No activity												Quiescent TG1 GSCs EC50 (quiescent TG1 GSCs [2]; [7]): No activity
C#C[C@]1(O)CC[C@H]2[C@@H]3CCC4=CCCC[C@@H]4[C@H]3CC[C@@]21C [Lynestrenol]		26 ± 5	36 ± 2	56 ± 10	23 ± 5	32 ± 2	43 ± 8	20 ± 1	28 ± 6	57 ± 8			Activity on proliferating TG1 GSCs (hit compounds reducing ATP levels) (proliferating TG1 GSCs [5]): yes
Cc1c2ccncc2c(C)c2c1[nH]c1ccccc12 [Ellipticine]		8 ± 1	13 ± 1	30 ± 9	7 ± 2	13 ± 1	19 ± 5	5 ± 1	56 ± 10	13 ± 2	yes		Activity on proliferating TG1 GSCs (hit compounds reducing ATP levels) (proliferating TG1 GSCs [5]): yes
O=c1cc(-c2ccc(O)c(O)c2)oc2cc(O)cc(O)c12 [Luteolin, 3',4',5,7-tetrahydroxy-flavone]		> 100	> 100	18 ± 4	70 ± 36	> 100	20 ± 2	> 100	34 ± 4	> 100	yes		
Oc1ccc(C(c2ccccc2)c2ccc(O)cc2)cc1 [Compound 12, 4,4’-dihydroxyphenyl-phenyl-methane]												14.2 ± 8.8	EC50 (proliferating TG1 GSCs [1]; [10]): 60.8 ± 10.4 µM; fold increase in EC50 (activity decrease) compared to DDPM (compound 2) (quiescent TG1 GSCs [2]): at least 10 fold
Oc1ccc(C(c2ccccn2)c2ccccc2O)cc1 (stereo not drawn) [Compound 9, (2-hydroxyphenyl)-(4-hydroxyphenyl)-(pyridin-2-yl)-methane]	No activity											57.6 ± 0.7	
COc1ccc(C(c2ccc(OC)cc2)c2ccccn2)cc1 [Compound 4, 4,4'-dimethoxydiphenyl(pyridin-2-yl)methane]	No activity												Quiescent TG1 GSCs EC50 (quiescent TG1 GSCs [2]; [7]): No activity
COc1ccc(CCN2CCC(Nc3nc4ccccc4n3Cc3ccc(F)cc3)CC2)cc1 [Astemizole]					6.3 ± 0.2								Activity on proliferating TG1 GSCs (hit compounds reducing ATP levels) (proliferating TG1 GSCs [5]): yes
Oc1ccc(C(c2ccc(O)cc2)c2cccnc2)cc1 [Compound 15, 4,4'-dihydroxyphenyl-3-pyridinyl-methane]												8 ± 3	EC50 (proliferating TG1 GSCs [1]; [10]): > 100 µM; fold increase in EC50 (activity decrease) compared to DDPM (compound 2) (quiescent TG1 GSCs [2]): ~ 8 fold
CC(=O)[C@H]1CC[C@H]2[C@@H]3CCC4=CC(=O)CC[C@]4(C)[C@H]3CC[C@]12C [Progesterone]		89 ± 29	> 100	23 ± 11	> 100	75 ± 6	25 ± 11	> 100	25 ± 9	36 ± 10	yes		
Oc1ccc(Cc2ccc(O)cc2)cc1 [Compound 13, Bis(4-hydroxyphenyl)methane]	No activity												Quiescent TG1 GSCs EC50 (quiescent TG1 GSCs [2]; [7]): No activity
Oc1ccc(C(c2ccc(O)cc2)c2ccccn2)cc1 [Compound 2, 4,4'-dihydroxydiphenyl(pyridine-2-yl)methane]												1 ± 0.5	EC50 (proliferating TG1 GSCs [1]; [10]): > 100 µM
CC(NCCC(c1ccccc1)c1ccccc1)c1ccccc1 (stereo not drawn) [Fendiline hydrochloride]		40 ± 13	22 ± 1	48 ± 9	11 ± 1	42 ± 1	32 ± 1	42 ± 8	45 ± 16	34 ± 9	yes		
